Data set [1] can be described thus: Microsomal stability. The class given is in vitro ADME. The following applies: human, mouse, rat, dog, monkey, liver microsomes, 30 minutes 37 ℃, with and without NADPH, across all microsomes tested. As to the method: The metabolic stability of RA-PR058 was evaluated using liver microsomes from humans and various animal species at 37 ℃. This assay was carried out by SPMED Co., Ltd (Republic of Korea). The test was initiated by adding the 1 μM of RA-PR058 to liver microsomes in the presence or absence of an NADPH regenerating system. After incubation at 37 ℃ for 30 minutes, acetonitrile containing an internal standard was added to each sample to terminate the reaction. Samples were then centrifuged, and the supernatant was analyzed by LC-MS.
(Liver microsomes are a subcellular fraction often used to study metabolism.)

In data set [2] the test system is tau. In words: Tau phosphorylation in brain of 3xTg-AD mice (western blot, DAB staining). The class given is in vivo, mouse. The following applies: 20 mg/kg oral daily 4 weeks. As to the method:
(§1) 3xTg-AD (B6;129-Tg(APPSwe,tauP301L)1Lfa Psen1^tm1Mpm/Mmjax) mice and their littermate wild-type (WT) mice were used in this study. Each experimental group consisted of 4–8 mice, with groups designated as WT, 3xTg-AD Vehicle, and 3xTg-AD RA-PR058. All mice were maintained in a 12-hour light/dark cycle with free access to food and water. 7-month-old age of mice were administered with 20 mg/kg of RA-PR058 orally once a day for 1 month followed by the elevated plus maze test. All animal experimental procedures were approved by the Institutional Animal Care and Use Committee of Sungkyunkwan University (SKKUIACUC2022-10-41-1).
After EPM was conducted, mice were sacrificed, and brain tissues were collected as previously described (Park et al. [2021]). Mice were anesthetized by injecting Zoletil (Virbac) and Rompun (Bayer) intraperitoneally. After mice were anesthetized, they were perfused with phosphate-buffered saline (PBS). Then, brains were extracted and cut into two hemispheres; one hemisphere was preserved in 4% paraformaldehyde and the other was dissected into the cortex and hippocampus. Dissected tissues were then snap-frozen in liquid nitrogen and stored at −80 ℃ until further biochemical analysis.
Samples for western blot analysis were prepared as previously described (Gwon et al. [2012]). Cells were lysed with T-PER™ Tissue Protein Extraction Reagent (Thermo Fisher Scientific) supplemented with protease/phosphatase inhibitor cocktail (Thermo Fisher Scientific) and incubated at 4 ℃ for 10 minutes. After incubation, lysed samples were centrifuged at 13,000 x rpm for 10 minutes at 4 ℃ and the supernatant were used for western blot analysis. The cortices and hippocampi tissues were homogenized using RIPA lysis buffer (Millipore) supplemented with protease/phosphatase inhibitor cocktail and incubated at 4 ℃ for 30 minutes. Following incubation, lysed tissues were centrifuged at 13,000 x rpm for 30 minutes at 4 ℃ and the supernatant were used for western blot analysis. Protein concentrations were measured using Pierce™ BCA Protein Assay Kits (Thermo Fisher Scientific). Equal amounts of proteins were mixed with NuPAGE™ LDS Sample Buffer (Invitrogen) and 5% 2-mercaptoethanol (Sigma) and then boiled at 95 ℃ for 5 minutes. 4–12 μg of proteins were loaded onto SDS-polyacrylamide gels and electrophoresed (SDS-PAGE) until the protein bands were fully separated. After SDS-PAGE, the protein bands were transferred onto polyvinylidene fluoride (PVDF) membranes (Millipore). Following transfer, PVDF membranes were blocked with 5% non-fat skim milk in tris-buffered saline with Tween20 (Junsei) (TBS-T) for 1 hour at room temperature. Then, PVDF membranes were incubated overnight at 4 ℃ with primary antibodies against APP (6E10, BioLegend, 803001, 1:1,000), AT8 (Invitrogen, MN1020, 1:1,000), AT180 (Invitrogen, MN1040, 1:1,000), BACE1 (Cell Signaling Technology, 5606, 1:1,000), β-Actin (Sigma, A5441, 1:10,000), p-JNK (Cell Signaling Technology, 4671, 1:1,000), JNK (Cell Signaling Technology, 9252, 1:1,000), p-Tau^S396 (Invitrogen, 44-752G, 1:1,000), Tau13 (BioLegend, 835201, 1:1,000). Following incubation, membranes were washed with TBS-T and incubated with horseradish peroxidase-conjugated anti-mouse secondary antibody (Sigma, AP124P, 1:5,000) or anti-rabbit secondary antibody (Invitrogen, 31460, 1:5,000) for 1 hour at room temperature. […] Protein bands were quantified using ImageJ (NIH). […]

Data set [3] has as its system JNK. In words: JNK phosphorylation in cortex of 3xTg-AD mice (western blot). The class given is in vivo, mouse. The following applies: 20 mg/kg oral daily 4 weeks, p-JNK normalized with JNK. As to the method: as §1
(§2) After EPM was conducted, mice were sacrificed, and brain tissues were collected as previously described (Park et al. [2021]). Mice were anesthetized by injecting Zoletil (Virbac) and Rompun (Bayer) intraperitoneally. After mice were anesthetized, they were perfused with phosphate-buffered saline (PBS). Then, brains were extracted and cut into two hemispheres; one hemisphere was preserved in 4% paraformaldehyde and the other was dissected into the cortex and hippocampus. […]
(§3) Samples for western blot analysis were prepared as previously described (Gwon et al. [2012]). […] Protein concentrations were measured using Pierce™ BCA Protein Assay Kits (Thermo Fisher Scientific). […] Protein bands were quantified using ImageJ (NIH).
(In western blotting, separated proteins are transferred to a membrane and probed.)

Data set [4] relates to BACE1. Description: BACE1 expression in brain of 3xTg-AD mice (western blot). The class given is in vivo, mouse. The note with it: 20 mg/kg oral daily 4 weeks. As to the method:
as §1, §2, §3

Data set [5] can be described thus: Plasma pharmacokinetics after IV and PO administration. The class given is in vivo. The note with it: Sprague-Dawley, rat, 10 mg/kg, S.D. rats; for Cmax / half-life / AUC(0-t): in vivo; for AUC(0-t): read-out: AUC0-7h; for Tmax: plasma. As to the method:
Pharmacokinetic assays were conducted by NeuroVis (Republic of Korea). 10 mg/kg of RA-PR058 was administered to Sprague–Dawley rats by either oral administration route or intravenous injection route. Blood sampling was conducted using the BASi Culex ABS system. After cannulation, catheters were inserted into the jugular vein and the carotid artery of the rats, with the system programmed to collect 200 μL samples. Collected blood samples were centrifuged at 12,000 x rpm for 10 minutes to separate plasma, which was then immediately stored at −80 ℃. For brain pharmacokinetics, 10 mg/kg of RA-PR058 was administered orally to Sprague–Dawley rats, followed by collection of both blood and brain tissue. After collection, samples were mixed with the internal standard, ofloxacin, and centrifuged at 13,000 x rpm for 5 minutes at 4 ℃. The resulting supernatants were then combined with 50% methanol and analyzed by LC-MS/MS.

Read-outs that look alike come from different tables or passages of the source. Where only a bound is given, the exact number is not on record here.

Experimental findings from PMC11809180, “RA-PR058, a novel ramalin derivative, reduces BACE1 expression and phosphorylation of tau in Alzheimer’s disease mouse models” (Animal Cells and Systems, 2025) are described below.

By share remaining is commonly meant the share of the starting amount still present when the sample was taken. High values mean less turnover, low ones more turnover. The term Cmax denotes the maximum level reached in the sampled fluid or tissue. Usually half-life stands for the time needed for the level to fall by half in the phase considered. A lower half-life goes with rapid decline. The term Tmax denotes the time at which the peak concentration occurs.

On to `Cl.N[C@@H](CCC(=O)NNc1ccccc1F)C(F)F` [RA-PR058, (S)-4-amino-5,5-difluoro-N'-(2-fluorophenyl)pentanehydrazide hydrochloride], for which the fraction remaining at 0.5 h, 1 μM in data set [1] was > 90%. In data set [2] (cortex, normalized with Tau13), the “Tau phosphorylation at Ser202/Thr205 (AT8)” value is recorded as “significantly reduced”, the “Tau phosphorylation at Ser396” value is “significantly reduced” and the “Tau phosphorylation at Thr231 (AT180)” value is on record as “significantly reduced”. For the same compound, the “AT8 expression in the hippocampus” value in data set [2] (hippocampus) is “significantly reduced”. Moreover, in data set [2] (hippocampus, AT180, p-Tau S396), the “Other phosphorylated tau species in the hippocampus” value is reported as “did not affect”. Further, the JNK phosphorylation result in data set [3] was “significantly downregulated”. The “Cortical BACE1 expression” value in data set [4] (cortex, normalized with β-Actin) is given as “significantly reduced”. In data set [4] (hippocampus), the “BACE1 expression in the hippocampus” value is on record as “did not affect”. Besides, in data set [5] (IV), the peak concentration (Cmax) came out at 4260 ng/mL, the half-life was 63.5 min, the AUC(0-t) is 5700 ng·h/mL and the time to peak (Tmax) is 17.5 min. In data set [5] (PO), the peak level (Cmax) was 3480 ng/mL, the half-life is 94.5 min, the AUC(0-t) was determined as 6090 ng·h/mL and the Tmax amounted to 27.5 min.
